The source of these data is ChEMBL document CHEMBL4052617, “Antibacterial activity of N-methylbenzofuro[3,2-b]quinoline and N-methylbenzoindolo[3,2-b]-quinoline derivatives and study of their mode of action” (2017).

Assay [1] relates to Escherichia coli. The assay is described as follows: Antibacterial activity against Escherichia coli ATCC […] expressing NDM-1 beta-lactamase after 18 hrs by Mueller-Hinton broth microdilution method. The assay is classed as functional. A general note: Dilution methods test growth across graded concentrations, often in twofold steps.
Assay [2] deals with Pseudomonas aeruginosa. The assay is described as follows: Antibacterial activity against multidrug-resistant Pseudomonas aeruginosa ATCC BAA2108 after 18 hrs by Mueller-Hinton broth microdilution method. The conditions noted are these: ATCC BAA2108, 18 h. The format is functional.
For assay [3], the system named is Bacillus subtilis. As to the kind of experiment: Antibacterial activity against Bacillus subtilis 168 after 18 hrs by Mueller-Hinton broth microdilution method. The format is functional. The following applies: subsp. subtilis str. 168, 18 h.
The subject of assay [4] is Escherichia coli. As to the kind of experiment: Antibacterial activity against Escherichia coli ATCC 25922 after 18 hrs by Mueller-Hinton broth microdilution method. The format is functional. The conditions noted are these: ATCC 25922, 18 h.
Assay [5] concerns Staphylococcus aureus. As to the kind of experiment: Bactericidal activity against methicillin-resistant Staphylococcus aureus ATCC BAA41 assessed as reduction in colony forming units at 1 time MIC concentration after 24 hrs by time kill assay. The format is functional.
Assay [6] concerns the target T1, Cell division protein FtsZ (Staphylococcus aureus) (UniProt P0A031).
T1 sequence (whole entry): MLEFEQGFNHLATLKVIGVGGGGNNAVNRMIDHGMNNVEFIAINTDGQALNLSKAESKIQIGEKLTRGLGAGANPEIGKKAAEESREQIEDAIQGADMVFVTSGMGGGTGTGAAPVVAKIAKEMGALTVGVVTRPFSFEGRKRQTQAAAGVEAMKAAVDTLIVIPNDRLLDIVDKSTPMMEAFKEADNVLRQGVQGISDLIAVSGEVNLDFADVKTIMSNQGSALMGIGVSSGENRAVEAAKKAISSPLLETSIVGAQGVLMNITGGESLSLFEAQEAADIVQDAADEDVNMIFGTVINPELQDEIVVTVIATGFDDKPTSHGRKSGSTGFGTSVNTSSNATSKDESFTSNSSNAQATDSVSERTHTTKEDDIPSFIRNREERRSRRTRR
The assay is described as follows: Inhibition of recombinant N-terminal His6-tagged Staphylococcus aureus FtzS expressed in Escherichia coli BL21 (DE3) cells assessed as reduction in protein polymer thickness at 8 ug/ml preincubated for 10 mins followed by GTP addition after 15 mins by phosphotungstic acid staining based transmission electron microscopic method.

Assay [7] addresses T1, Cell division protein FtsZ (Staphylococcus aureus). The assay is described as follows: Inhibition of recombinant N-terminal His6-tagged Staphylococcus aureus ATCC 29213 FtzS GTPase activity expressed in Escherichia coli BL21 (DE3) cells assessed as reduction in GTP hydrolysis at 16 ug/ml preincubated for 10 mins followed by GTP addition measured after 30 mins by CytoPhos reagent based assay.

Assay [8] deals with Enterococcus faecium. The assay is described as follows: Antibacterial activity against antibiotic-susceptile Enterococcus faecium ATCC 49624 after 18 hrs by brain heart infusion broth microdilution method. The format is functional. The following applies: ATCC 49624, 18 h.
Assay [9] has as its target T1, Cell division protein FtsZ (Staphylococcus aureus). As to the kind of experiment: Inhibition of recombinant N-terminal His6-tagged Staphylococcus aureus ATCC 29213 FtzS GTPase activity expressed in Escherichia coli BL21 (DE3) cells assessed as reduction in GTP hydrolysis preincubated for 10 mins followed by GTP addition measured after 30 mins by CytoPhos reagent based assay.

For assay [10] the target is unchanged. The assay is described as follows: Inhibition of recombinant N-terminal His6-tagged Staphylococcus aureus ATCC 29213 FtzS GTPase activity expressed in Escherichia coli BL21 (DE3) cells assessed as reduction in GTP hydrolysis at 8 ug/ml preincubated for 10 mins followed by GTP addition after 30 mins by CytoPhos reagent based assay.
Assay [11] deals with Staphylococcus aureus. As to the kind of experiment: Bactericidal activity against methicillin-resistant Staphylococcus aureus ATCC BAA41 assessed as reduction in colony forming units at 2 times MIC concentration after 6 hrs by time kill assay. The assay is classed as functional.
The test system of assay [12] is Escherichia coli. The assay is described as follows: Bactericidal activity against Escherichia coli ATCC 25922 assessed as reduction in colony forming units at 4 times MIC concentration after 4 hrs by time kill assay. The assay is classed as functional.
The target of assay [13] is T2, Cell division protein FtsZ (Bacillus subtilis (strain 168)) (UniProt P17865).
T2 sequence (whole entry): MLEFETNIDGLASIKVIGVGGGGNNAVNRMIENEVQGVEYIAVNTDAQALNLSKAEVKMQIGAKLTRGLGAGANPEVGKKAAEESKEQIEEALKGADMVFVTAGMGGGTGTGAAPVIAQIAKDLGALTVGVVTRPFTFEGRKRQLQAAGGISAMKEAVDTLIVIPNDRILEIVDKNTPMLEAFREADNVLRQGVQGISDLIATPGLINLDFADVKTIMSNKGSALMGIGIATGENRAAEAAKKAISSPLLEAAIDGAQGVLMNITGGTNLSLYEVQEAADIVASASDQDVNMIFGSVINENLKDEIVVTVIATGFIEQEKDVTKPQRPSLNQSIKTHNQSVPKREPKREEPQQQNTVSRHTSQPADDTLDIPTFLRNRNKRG
The assay is described as follows: Inhibition of Bacillus subtilis 168 GTPase activity of FtsZ assessed as increase in cell length at 2 ug/ml after 4 hrs by phase-contrast optical microscopic analysis. The following applies: Bacillus subtilis subsp. subtilis str. 168.

Assay [14] concerns Staphylococcus aureus. As to the kind of experiment: Antibacterial activity against methicillin-resistant Staphylococcus aureus ATCC BAA41 after 18 hrs by cation adjusted Mueller-Hinton broth microdilution method. The format is functional. The following applies: ATCC BAA41, 18 h.
Assay [15] has as its system Staphylococcus aureus. The assay is described as follows: Antibacterial activity against Staphylococcus aureus ATCC 29213 after 18 hrs by cation adjusted Mueller-Hinton broth microdilution method. The assay is classed as functional. The following applies: ATCC 29213, 18 h.
For assay [16], the target named is T1, Cell division protein FtsZ (Staphylococcus aureus). The assay is described as follows: Inhibition of recombinant N-terminal His6-tagged Staphylococcus aureus ATCC 29213 FtzS polymerization expressed in Escherichia coli BL21 (DE3) cells at 16 ug/ml in presence of GTP by fluorescence spectrometry method.
The target is the same in assay [17]. As to the kind of experiment: Inhibition of recombinant N-terminal His6-tagged Staphylococcus aureus ATCC 29213 FtzS GTPase activity expressed in Escherichia coli BL21 (DE3) cells assessed as reduction in GTP hydrolysis at 4 ug/ml preincubated for 10 mins followed by GTP addition measured after 30 mins by CytoPhos reagent based assay.
The test system of assay [18] is Escherichia coli. As to the kind of experiment: Bactericidal activity against Escherichia coli ATCC 25922 assessed as reduction in colony forming units at 1 to 2 times MIC concentration after 24 hrs by time kill assay. The format is functional.
For assay [19], the target named is T1, Cell division protein FtsZ (Staphylococcus aureus). The assay is described as follows: Inhibition of recombinant N-terminal His6-tagged Staphylococcus aureus ATCC 29213 FtzS polymerization expressed in Escherichia coli BL21 (DE3) cells in presence of GTP by fluorescence spectrometry method.
The test system of assay [20] is Staphylococcus aureus. As to the kind of experiment: Bactericidal activity against methicillin-resistant Staphylococcus aureus ATCC BAA41 assessed as reduction in colony forming units at MIC concentration after 6 hrs by time kill assay. The assay is classed as functional.
The subject of assay [21] is Klebsiella pneumoniae. As to the kind of experiment: Antibacterial activity against Klebsiella pneumoniae ATCC BAA2470 expressing NDM-1 beta-lactamase after 18 hrs by Mueller-Hinton broth microdilution method. The assay is classed as functional. The following applies: ATCC BAA2470, 18 h.
Assay [22] concerns the target T1, Cell division protein FtsZ (Staphylococcus aureus). As to the kind of experiment: Inhibition of recombinant N-terminal His6-tagged Staphylococcus aureus FtzS expressed in Escherichia coli BL21 (DE3) cells assessed as reduction in protein protofilament bundling at 8 ug/ml preincubated for 10 mins followed by GTP addition after 15 mins by phosphotungstic acid staining based transmission electron microscopic method.

The test system of assay [23] is Enterococcus faecium. The assay is described as follows: Antibacterial activity against vancomycin-resistant Enterococcus faecium ATCC 700221 after 18 hrs by brain heart infusion broth microdilution method. The format is functional. The conditions noted are these: ATCC 700221, 18 h.

A word on the MIC: it is the least concentration at which growth counts as inhibited. The low end stands for inhibition by little substance, the high end for a need for much substance. Broadly, the inhibition is the percentage by which the read-out fell short of the control.

The source made the active and inactive calls. No cut-off for these calls is given here.

As to `COc1ccc(Nc2c3ccccc3[n+](C)c3c2[nH]c2ccccc23)cc1.[I-]`, the MIC in [1] worked out at 6 µg/mL; in [2], 48 µg/mL; in [3], 2 µg/mL; in assay [4], 6 µg/mL; in [8], 4 µg/mL; in assay [14] it was 2 µg/mL. In addition, the MIC in [15] worked out at 2 µg/mL; in assay [21], 48 µg/mL; in assay [23], 4 µg/mL. Besides, the Activity in assay [5] is on record as 1 ×10³ CFU/ml; in assay [11] it was 1 ×10³ CFU/ml; in [20], 1 ×10² CFU/ml. In addition, the inhibition entry in [6], in assay [12], in assay [16], in assay [18] and in assay [22] was “Active” in each case. The inhibition was 60% in assay [7]; “Dose-dependent effect” in assay [9]; 50% in assay [10]; 20% in assay [17]; “Dose-dependent effect” in [19]. For the same compound, in [13], the result was Active.
